Data on three molecules can be found in article PMC6379368, “Extracellular and intracellular small-molecule galectin-3 inhibitors” (Scientific Reports, 2019).

The structures appear in SMILES notation. “And” between values parts separate entries of the source, which are not always exact repeats. Equal entries are not always repeated. Where two headings read alike, the source gives them in different places. Where a SMILES comes first, the peptide text is derived from it. The star is where a group is joined. βNA = c1ccc2cc(N*)ccc2c1

In data set [1] the target is T1, galectin-3 (Homo sapiens, UniProt P17931). Put plainly: GPN-induced galectin-3 accumulation (puncta) in JIMT-1 breast cancer cells. Also on record: In the intracellular assay, in contrast, only endogenous galectin was present; endogenous in cells; host or cells: JIMT-1 breast cancer cells. Format: cell-based. As to the method: The total number of galectin-3 puncta and nuclei in the microscopy images were quantified using the software ImageJ.
T1 sequence (P17931 whole entry): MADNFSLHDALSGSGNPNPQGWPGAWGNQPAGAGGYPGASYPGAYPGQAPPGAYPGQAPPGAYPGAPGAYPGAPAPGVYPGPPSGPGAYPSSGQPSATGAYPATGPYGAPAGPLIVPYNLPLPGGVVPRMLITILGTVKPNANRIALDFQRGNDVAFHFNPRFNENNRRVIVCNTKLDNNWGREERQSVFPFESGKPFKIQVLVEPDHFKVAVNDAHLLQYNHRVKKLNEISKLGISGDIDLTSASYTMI
Cells were seeded in multi-well plates with sterile glass coverslips placed in each well and allowed to adhere to the cell culture surface for at least 24 hours. Then the cells were pre-treated with the different galectin-3 inhibitors at different concentrations (or DMSO as control) for 15 minutes or 24 hours followed by addition of the lysosomal damaging peptide GPN[42] and incubated another 13 minutes, with the inhibitors still present. The 13-minute incubation with GPN and 15-minute pre-incubation with inhibitors were done in DMEM/Ham’s F12 medium with 15 mM HEPES buffer (without serum), whereas the 24-hour incubation with inhibitors were performed in fully supplemented DMEM/Ham’s F12 medium (as described under Cell culture).
After treatment with GPN, the cells were fixed in 3.7% (v/v) formaldehyde in phosphate-buffered saline (PBS) for 15 minutes, permeabilized and blocked using 1% (v/v) TWEEN 20 and 5% (w/v) BSA in PBS for 30 minutes, then incubated with primary and secondary antibodies for one hour each (washed with PBS in between). Primary and secondary antibodies for galectin-3 staining were a rat anti-mouse galectin-3 IgG antibody[50],[51] […] All antibodies were diluted in 0.05% TWEEN 20 and 5% BSA in PBS. […] The coverslips were mounted on glass slides using Mowiol® 4–88 and left at 8 °C overnight before further examination. For imaging of the cells, a LSM-510 confocal laser scanning microscope (Carl Zeiss Microscopy GmbH, Oberkochen, Germany), equipped with a Hamamatsu R6357 photomultiplier (Hamamatsu Photonics K.K., Hamamatsu, Japan), was used. […] Maximum intensity projections of each picture obtained were analyzed with ImageJ 1.47 v (Rasband, W.S., ImageJ, U. S. National Institutes of Health, Bethesda, Maryland, USA) to quantify the number of galectin-3 dots and the number of nuclei in each picture. The quantification of particles (i.e. galectin-3 puncta/nucleus) was carried out using batch processing in the software, where a single macro (including parameters such as image thresholds, particle size and circularity) was used for all images obtained from a single experiment, this to reduce user bias and time consumption.

Another data set relates to JIMT-1 cells. The experiment in a line: MTT cell viability assay, JIMT-1. Type of data set: cell-based. As to conditions: JIMT-1, 72 hours, 0.04–40 µM for 1 and 2, 0.04–20 µM for 3. As to the method: (§1) The MTT (3-[4,5-dimethylthiazol-2-yl]−2,5-diphenyltetrazolium bromide) assays were performed as previously described. […] The cells were incubated for 24 hours before addition of galectin-3 inhibitors. The inhibitors were diluted in PBS from their respective stock solution in DMSO (see Galectin-3 inhibitors) and used at final concentrations ranging from 0.04 to 40 μM. DMSO was adjusted to make the final DMSO concentration 0.2% for all inhibitor concentrations, including the control sample (no inhibitor). After 72 hours of treatment, 20 μl of 5 mg/ml MTT solution (in PBS) was added to each well and incubation continued for 1 hour at 37 °C. Thereafter, the MTT containing medium was removed and 100 μl of DMSO was added per well and the plates swirled gently for 10 minutes to dissolve the cells and the purple formazan product precipitate. Absorbance was monitored at 540 nm using a Labsystems iEMS Reader MF (Labsystems Oy, Helsinki, Finland) and the software DeltaSoft II v.4.14 (Biometallics Inc., Princeton, NJ, USA).

A further data set has as its system MCF-7 cells. Put plainly: MTT cell viability assay, MCF-7. Format: cell-based. Particulars: MCF-7, 72 hours, 0.04–40 µM for 1 and 2, 0.04–20 µM for 3. As to the method: as §1
In a further data set the test system is HCC1937 cells. The experiment in a line: MTT cell viability assay, HCC1937. Type of data set: cell-based. Particulars: HCC1937, 72 hours, 0.04–40 µM for 1 and 2, 0.04–20 µM for 3. As to the method:
as §1

A further data set deals with galectin-1. On the set-up: method as in Delaine et al., Salameh et al., Peterson et al. Particulars: lower compared to galectin-3; ref Delaine et al., Salameh et al., Peterson et al.; cited from earlier work.
A further data set relates to obese mice. Also on record: method as in PMID 27814523. Particulars: type 2 diabetes study; cited from earlier work.
A short description of data set [2]: Caco-2 permeability assay. Particulars: human, Caco-2, pH 7.4.
Data set [3] concerns the target T1, galectin-3. The experiment in a line: Fluorescence anisotropy (FA) competitive assay, affinity for galectin-3. Type of data set: binding. Also on record: made in house; host or cells: E. coli BL21 Star (DE3). An excerpt: A FA assay was used to determine the affinity of recombinant human galectin-3 and the three inhibitors in solution. The use of the FA assay for this purpose has previously been described in detail by Sörme et al.[49]. In short, increasing concentrations of galectins were first titered against a fixed concentration of the fluorescent saccharide probe 3,3′-dideoxy-3-[4-(fluorescein-5-yl-carbonylaminomethyl)-1H-1,2,3-triazol-1-yl]−3′-[4-(3-fluorophenyl)-1H-1,2,3-triazol-1-yl]-1,1′-sulfanediyl-di-β-D-galactopyranoside (4 nM) (described in Peterson et al.[28]), to obtain binding curves in which the anisotropy value increases from a value for probe free in solution (A0) to a value where all probe molecules are bound to galectin-3 (Amax). Binding curves were constructed for each test condition used in this study (i.e. different buffer, temperature and pH, see below) (Fig. S4). To establish the dissociation constant (Kd) values between the inhibitors and galectin-3, a competitive variant of the FA assay was utilized. In this study, increasing concentrations of the inhibitors were titered against fixed concentrations of galectin-3 and probe. By measuring the anisotropy values for the different inhibitor concentrations, together with the values for Amax and A0, the Kd values could be calculated according to the equations presented in Sörme et al.[49].
The experiments were either performed in PBS (pH 7.2), in 50 mM phosphate buffer with 100 mM NaCl (pH 6, 7, or 8), or in 50 mM acetate buffer with 100 mM NaCl (pH 5). All buffers were supplemented with 0.1 µM BSA (to not lose any protein due to absorbance to plate surfaces). For the experiments performed in PBS (pH 7.2), a concentration of 20 nM galectin-3 was used (at room temperature and 4 °C). For the experiments done in phosphate/acetate buffer, galectin-3 was used at concentrations of 400 nM (pH 5), 100 nM (pH 6), or 50 nM (pH 7 and 8).
The emitted light from the fluorescent saccharide probes was measured using a PheraStarFS plate reader and PHERAstar Mars version 2.10 R3 software (BMG, Offenburg, Germany). […] The anisotropy values for each data point were read in duplicate wells of 96-well plates (at a total volume of 140 µl) 30 minutes after the addition of all solutions (for equilibrium to arise).

The target of data set [4] is T1, galectin-3. The experiment in a line: Inhibition of fluorescein-tagged galectin-3 binding to the cell surface of CHO cells (flow cytometry). As to conditions: 0.5 µM fluorescein-tagged galectin-3, 4 °C, 1 hour. On the set-up: made in house; host or cells: E. coli BL21 Star (DE3). Type of data set: cell-based.

On to `NCC(=O)N[C@@H](Cc1ccccc1)C(=O)Nc1ccc2ccccc2c1` [GPN, glycyl-L-phenylalanine 2-naphthylamide, reference compound] (H-Gly-Phe-βNA), for which the “mean number of galectin-3 puncta/nucleus” value at galectin-3 [1] (JIMT-1 cells, 0.3 mM GPN for 13 minutes, n = 92) amounted to 4.81 ± 0.23.

On to `CCCCNC(=O)c1cn(C2C(O)C(CO)OC(SC3OC(CO)C(O)C(n4cc(C(=O)NCCCC)nn4)C3O)C2O)nn1` (stereo not shown) [compound 3], for which the “cell viability (MTT)” value in the data set on JIMT-1 cells, in the data set with MCF-7 cells and in the data set with HCC1937 cells was “no apparent change in cell viability” throughout. For the same molecule, the “affinity for galectin-1” value in the data set with galectin-1 was “high affinity”. Besides, the glucose tolerance result with obese mice was “improved glucose tolerance”. Moreover, the insulin resistance entry with obese mice was “decreased insulin resistance”. In addition, in data set [2], the apparent permeability from apical to basolateral (Papp A→B) was under 0.3 ×10⁻⁶ cm/s. In [2], this molecule displayed a Papp B→A of under 0.07 ×10⁻⁶ cm/s. The dissociation constant Kd was 0.0358 µM at galectin-3 [3] (as in Fig. 1b, restated in legend of Fig. S1, read-out: Kd value for galectin-3); 0.036 µM and 0.0358 µM on galectin-3 [3] (galectin-3 CRD, FA assay, PBS pH 7.2, room temperature, read-out: Kd value for galectin-3); 0.778 µM at galectin-3 [3] (pH 5, acetate buffer with NaCl, read-out: Kd value for galectin-3 at pH 5). Further, the “fold lower affinity for galectin-3 compared to 1” value on galectin-3 [3] (ratio of Kd values) was over 10 fold. The half-inhibitory concentration (IC50) is 10 µM on galectin-3 [4] and about 10 µM at galectin-3 [1] (JIMT-1 cells, 15 minutes pre-incubation, read-out: IC50, inhibition of GPN-induced galectin-3 accumulation). Besides, the “inhibition of galectin-3 accumulation (extent)” value is given as “complete inhibition of galectin-3 accumulation could not be reached” on galectin-3 [1] (15 minutes pre-treatment, high concentrations 50–100 µM) and “poor inhibitor of galectin-3 accumulation” at galectin-3 [1] (24 hours pre-treatment, up to 10 µM).

In [2], `OC[C@H]1O[C@H](Sc2ccc(Cl)c(Cl)c2)[C@H](O)[C@@H](n2cc(-c3cc(F)c(F)c(F)c3)nn2)[C@H]1O` [compound 2] registered a Papp A→B of 14.7 ×10⁻⁶ cm/s and a Papp B→A of 16.2 ×10⁻⁶ cm/s.
